# Reference: article PMC9090415, “Discovery of small molecule inhibitors of Plasmodium falciparum apicoplast DNA polymerase” (Journal of Enzyme Inhibition and Medicinal Chemistry, 2022)
# Target: P. falciparum apicoplast DNA polymerase (Pf-apPOL) (Plasmodium falciparum, UniProt Q8ILY1)
# Assay: Fluorescence-based high-throughput DNA polymerase assay (molecular beacon), primary screen and dose-response;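 as to % inhibition ApPOL 90': test concentration in µM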;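 as to % inhibition Apol 40': compound concentration given in µM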;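 as to % inhibition apPOL 180': test concentration in µM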
# Type: biochemical
# Details: for DNA Pol: 90 min, 10 µM
# Procedure, shortened: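 Single-point screening used 10 µM compound with 20 nM polymerase, 20 nM hairpin substrate and 6 µM dNTPs for 90 min at 25 °C. Confirmatory titrations (2.5–80 µM) followed fluorescence at three times, and IC50 was derived from a fit including a cooperativity term n.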
# Sequence of P. falciparum apicoplast DNA polymerase (Pf-apPOL) (Q8ILY1 entry or part of it): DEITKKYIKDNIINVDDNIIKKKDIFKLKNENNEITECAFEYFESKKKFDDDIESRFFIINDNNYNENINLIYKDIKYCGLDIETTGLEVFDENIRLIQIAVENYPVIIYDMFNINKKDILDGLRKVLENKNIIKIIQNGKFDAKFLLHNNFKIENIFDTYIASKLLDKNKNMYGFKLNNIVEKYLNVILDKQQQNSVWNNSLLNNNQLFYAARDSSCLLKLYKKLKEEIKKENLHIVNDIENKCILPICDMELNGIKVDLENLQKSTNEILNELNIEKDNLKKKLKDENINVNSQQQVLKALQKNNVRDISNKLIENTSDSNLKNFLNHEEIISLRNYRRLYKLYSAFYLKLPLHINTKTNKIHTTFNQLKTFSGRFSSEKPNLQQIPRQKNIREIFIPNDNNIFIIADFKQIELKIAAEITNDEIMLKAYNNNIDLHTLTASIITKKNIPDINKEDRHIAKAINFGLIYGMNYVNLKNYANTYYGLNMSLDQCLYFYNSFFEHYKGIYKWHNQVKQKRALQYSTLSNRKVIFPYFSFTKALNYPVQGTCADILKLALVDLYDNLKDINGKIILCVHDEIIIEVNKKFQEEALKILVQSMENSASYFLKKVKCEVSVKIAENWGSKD
structure (smiles),measurement,setting,value
"O=C1N=C(Nc2cccc(Cl)c2Cl)S/C1=C\c1ccco1 [Molecule 3, O=C1N=C(S/C/1=C\c1ccco1)Nc1cccc(c1Cl)Cl]",DNA Pol,'DNA Pol' of the 186 hits list (primary screen value),74
same,DNA Pol,DNA Pol (primary screen value),74
same,% inhibition Apo pol 10',"DRC-1, concentration 2.5",26.4621%
same,% inhibition Apo pol 10',"DRC-1, concentration 5",50.3585%
same,% inhibition Apo pol 10',"DRC-1, concentration 10",71.7156%
same,% inhibition Apo pol 10',"DRC-1, concentration 20",70.1447%
same,% inhibition Apo pol 10',"DRC-1, concentration 40",64.4851%
same,% inhibition Apo pol 10',"DRC-1, concentration 80",49.9988%
same,% inhibition Apol 90',"DRC-1, concentration 2.5",14.8677%
same,% inhibition Apol 90',"DRC-1, concentration 5",38.7366%
same,% inhibition Apol 90',"DRC-1, concentration 10",64.2373%
same,% inhibition Apol 90',"DRC-1, concentration 20",68.803%
same,% inhibition Apol 90',"DRC-1, concentration 40",72.5757%
same,% inhibition Apol 90',"DRC-1, concentration 80",68.4026%
same,% inhibition apPOL 180',"DRC-1, concentration 2.5",3.99%
same,% inhibition apPOL 180',"DRC-1, concentration 5",24.8255%
same,% inhibition apPOL 180',"DRC-1, concentration 10",52.4106%
same,% inhibition apPOL 180',"DRC-1, concentration 20",60.3634%
same,% inhibition apPOL 180',"DRC-1, concentration 40",70.3618%
same,% inhibition apPOL 180',"DRC-1, concentration 80",71.4479%
same,% inhibition Apo pol 5',"DRC-2, concentration 2.5",35%
same,% inhibition Apo pol 5',"DRC-2, concentration 5",38%
same,% inhibition Apo pol 5',"DRC-2, concentration 10",42%
same,% inhibition Apo pol 5',"DRC-2, concentration 20",31%
same,% inhibition Apo pol 5',"DRC-2, concentration 40",11%
same,% inhibition Apo pol 5',"DRC-2, concentration 80",-21%
same,% inhibition Apol 40',"DRC-2, concentration 2.5",37%
same,% inhibition Apol 40',"DRC-2, concentration 5",44%
same,% inhibition Apol 40',"DRC-2, concentration 10",58%
same,% inhibition Apol 40',"DRC-2, concentration 20",56%
same,% inhibition Apol 40',"DRC-2, concentration 40",44%
same,% inhibition Apol 40',"DRC-2, concentration 80",25%
same,% inhibition ApPOL 90',"DRC-2, concentration 2.5",34%
same,% inhibition ApPOL 90',"DRC-2, concentration 5",42%
same,% inhibition ApPOL 90',"DRC-2, concentration 10",59%
same,% inhibition ApPOL 90',"DRC-2, concentration 20",60%
same,% inhibition ApPOL 90',"DRC-2, concentration 40",53%
same,% inhibition ApPOL 90',"DRC-2, concentration 80",40%
same,% inhibition apPOL 180',"DRC-2, concentration 2.5",22%
same,% inhibition apPOL 180',"DRC-2, concentration 5",31%
same,% inhibition apPOL 180',"DRC-2, concentration 10",54%
same,% inhibition apPOL 180',"DRC-2, concentration 20",62%
same,% inhibition apPOL 180',"DRC-2, concentration 40",60%
same,% inhibition apPOL 180',"DRC-2, concentration 80",53%
